From patent US9000028B2, “Indole and indazole compounds as an inhibitor of cellular necrosis” (LG Life Sciences Ltd., priority 2007, dated 2015)
pEC50: −log10 of the molar value. Where two headings read alike, the source gives them in different places.

Test system: primary hepatocytes isolated from rats
Experiment: Hepatocyte protective effect against substances deriving hepatocyte toxicity (WST-1 viability)
Format: cell-based
Conditions: doxorubicin, 24-48 h, read-out: EC50, cell protective effects against doxorubicin in hepatocytes
Outline: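 Hepatocytes from two-step collagenase perfusion (≥90% viable) seeded on collagen, pretreated 30 min with compound (5-step 2- or 3-fold dilutions from 30, 10 or 1 uM; 0.2% DMSO), then exposed to hepatotoxic agents. WST-1 absorbance at 440 nm after 24-48 h; EC50 = concentration giving 50% of maximal protection.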

Compound | pEC50 (Rattus norvegicus, Hepatocyte) | pEC50 (rat primary hepatocytes)
Clc1cc(Nc2ccccn2)c2[nH]c(-c3ccccc3)cc2c1 [Example 113, (5-Chloro-2-phenyl-1H-indol-7-yl)-pyridin-2-yl-amine] | 6.46 | 
Cc1ccc(Nc2cc(Cl)cc3cc(-c4ccccc4)[nH]c23)nc1 [Example 114, (5-Chloro-2-phenyl-1H-indol-7-yl)-5-methyl-pyridin-2-yl-amine] | 6.43 | 
O=C(O)[C@@H]1CCCN1C(=O)c1cc(NC2CCOCC2)c2[nH]c(-c3ccccc3)cc2c1 [Example 118, (2S)-1-[2-phenyl-7-(tetrahydropyran-4-yl)amino-1H-indole-5-carbonyl]-pyrrolidine-2-carboxylic acid] | 5.96 | 
O=C(Cc1cc(NC2CCCC2)c2[nH]c(-c3ccccc3)cc2c1)N1CCCC1 [Example 119, 2-(7-Cyclopentylamino-2-phenyl-1H-indol-5-yl]-1-pyrrolidin-1-yl-ethanone] | 6.85 | 
O=C(O)C[C@@H]1CSC(c2cc(NC3CCCC3)c3[nH]c(-c4ccccc4)cc3c2)=N1 [Example 121, 2-[(R)-2-(7-cyclopentylamino-2-phenyl-1H-indol-5-yl)-4,5-dihydro-thiazol-4-yl]-acetic acid] | 6.70 | 
O=C(O)C[C@@H]1CSC(c2cc(NCC3CCOCC3)c3[nH]c(-c4ccccc4)cc3c2)=N1 [Example 122, 2-[(R)-2-(2-phenyl-7-(tetrahydropyran-4-yl)methylamino-1H-indol-5-yl)-4,5-dihydro-thiazol-4-yl]-acetic acid] | 6.70 | 
COC(=O)c1cccc(-c2cc3cc(Cl)cc(NC4CCCC4)c3[nH]2)c1 [Example 123, 3-(7-Cyclopentylamino-5-chloro-1H-indol-2-yl)-benzoic acid methyl ester] | 6.72 | 
O=C(O)c1cccc(-c2cc3cc(Cl)cc(NC4CCCC4)c3[nH]2)c1 [Example 124, 3-(7-Cyclopentylamino-5-chloro-1H-indol-2-yl)-benzoic acid] | 6.82 | 
OCc1cccc(-c2cc3cc(Cl)cc(NC4CCCC4)c3[nH]2)c1 [Example 125, [3-(5-Chloro-7-cyclopentylamino-1H-indol-2-yl)-phenyl]-methanol] | 6.95 | 
OCc1cccc(-c2cc3cc(Cl)cc(NC4CCOCC4)c3[nH]2)c1 [Example 126, {3-[5-Chloro-7-(tetrahydropyran-4-yl)amino-1H-indol-2-yl]-phenyl}-methanol] | 6.70 | 
O=C(O)Cc1cccc(-c2cc3cc(Cl)cc(NCC4CCOCC4)c3[nH]2)c1 [Example 127, 2-{3-[5-Chloro-7-(tetrahydropyran-4-ylmethyl)amino-1H-indol-2-yl]-phenyl}-acetic acid] | 6.23 | 
O=C(O)Cc1cccc(-c2cc3cc(Cl)cc(NC4CCCC4)c3[nH]2)c1 [Example 128, 2-[3-(5-Chloro-7-cyclopentylamino-1-H-indol-2-yl)-phenyl]-acetic acid] |  | 6.77
O=C(O)Cc1cccc(-c2cc3cc(Cl)cc(NC4CCOCC4)c3[nH]2)c1 [Example 129, 2-{3-[5-Chloro-7-(tetrahydropyran-4-yl)amino-1H-indol-2-yl]-phenyl}-acetic acid] | 5.94 | 
COC(=O)Cc1cccc(-c2cc3cc(Cl)cc(NCC4CCOCC4)c3[nH]2)c1 [Example 130, 2-{3-[5-Chloro-7-(tetrahydropyran-4-ylmethyl)amino-1H-indol-2-yl]-phenyl}-acetic acid methyl ester] | 6.42 | 
COC(=O)Cc1cccc(-c2cc3cc(Cl)cc(NC4CCCC4)c3[nH]2)c1 [Example 131, 2-[3-(5-Chloro-7-cyclopentylamino-1H-indol-2-yl)-phenyl]-acetic acid methyl ester] | 6.44 | 
COC(=O)Cc1cccc(-c2cc3cc(Cl)cc(NC4CCOCC4)c3[nH]2)c1 [Example 132] |  | 6.37
OCc1ccccc1-c1cc2cc(Cl)cc(NC3CCCC3)c2[nH]1 [Example 133, [2-(5-Chloro-7-cyclopentylamino-1H-indol-2-yl)-phenyl]-methanol] | 6.82 | 
O=C(O)c1ccccc1-c1cc2cc(Cl)cc(NC3CCCC3)c2[nH]1 [Example 134, 2-(5-Chloro-7-cyclopentylamino-1H-indol-2-yl)-benzoic acid] | < 6.00 | 
COC(=O)c1ccccc1-c1cc2cc(Cl)cc(NC3CCCC3)c2[nH]1 [Example 135, 2-(5-Chloro-7-cyclopentylamino-1H-indol-2-yl)-benzoic acid methyl ester] | 6.82 | 
OCc1ccc(-c2cc3cc(Cl)cc(NC4CCCC4)c3[nH]2)cc1 [Example 136, [4-(5-Chloro-7-cyclopentylamino-1H-indol-2-yl)-phenyl]-methanol] | 7.30 | 
OCCc1ccc(-c2cc3cc(Cl)cc(NC4CCOCC4)c3[nH]2)cc1 [Example 137, 2-{4-[5-Chloro-7-(tetrahydropyran-4-yl)amino-1H-indol-2-yl]phenyl}-ethanol] | 6.80 | 
O=C(O)c1ccc(-c2cc3cc(Cl)cc(NC4CCCC4)c3[nH]2)cc1 [Example 138, 4-(5-Chloro-7-cyclopentylamino-1H-indol-2-yl)-benzoic acid] | 7.00 | 

Compound | pEC50 (Rattus norvegicus, Hepatocyte) | pEC50 (rat primary hepatocytes)
O=C(O)Cc1ccc(-c2cc3cc(Cl)cc(NCC4CCOCC4)c3[nH]2)cc1 [Example 139, 2-{4-[5-Chloro-7-(tetrahydropyran-4-ylmethyl)amino-1H-indol-2-yl]phenyl}-acetic acid] | 6.48 | 
O=C(O)Cc1ccc(-c2cc3cc(Cl)cc(NC4CCCC4)c3[nH]2)cc1 [Example 140, 2-[4-(5-Chloro-7-cyclopentylamino-1H-indol-2-yl)phenyl]-acetic acid] | 6.89 | 
O=C(O)Cc1ccc(-c2cc3cc(Cl)cc(NC4CCOCC4)c3[nH]2)cc1 [Example 141, 2-{4-[5-Chloro-7-(tetrahydropyran-4-yl)amino-1H-indol-2-yl]phenyl}-acetic acid] | 6.34 | 
COC(=O)c1ccc(-c2cc3cc(Cl)cc(NC4CCCC4)c3[nH]2)cc1 [Example 142, 4-(5-Chloro-7-cyclopentylamino-1H-indol-2-yl)benzoic acid methyl ester] | 7.30 | 
COC(=O)c1ccc(-c2cc3cc(C)cc(NC4CCCC4)c3[nH]2)cc1 [Example 143, 4-(7-Cyclopentylamino-5-methyl-1H-indol-2-yl)benzoic acid methyl ester] | 7.18 | 
COC(=O)Cc1ccc(-c2cc3cc(Cl)cc(NCC4CCOCC4)c3[nH]2)cc1 [Example 144, 2-{4-[5-Chloro-7-(tetrahydropyran-4-ylmethyl)amino-1H-indol-2-yl]phenyl}-acetic acid methyl ester] | 6.52 | 
COC(=O)Cc1ccc(-c2cc3cc(Cl)cc(NC4CCOCC4)c3[nH]2)cc1 [Example 146, 2-{4-[5-Chloro-7-(tetrahydropyran-4-yl)amino-1H-indol-2-yl]phenyl}-acetic acid methyl ester] | 6.48 | 
CN(C)Cc1cccc(-c2cc3cc(Cl)cc(NC4CCOCC4)c3[nH]2)c1 [Example 147, [5-Chloro-2-(3-dimethylaminomethylphenyl)-1H-indol-7-yl]-(tetrahydropyran-4-yl)-amine] | 6.34 | 
Clc1cc(NC2CCOCC2)c2[nH]c(-c3cccc(CN4CCOCC4)c3)cc2c1 [Example 148, [5-Chloro-2-(3-morpholin-4-ylmethylphenyl)-1H-indol-7-yl]-(tetrahydropyran-4-yl)-amine] | 6.80 | 
Clc1cc(NC2CCOCC2)c2[nH]c(-c3cccc(CC4CCNC4)c3)cc2c1 (centres unmarked) [Example 149, [5-Chloro-2-(3-pyrrolidin-4-ylmethylphenyl)-1H-indol-7-yl]-(tetrahydropyran-4-yl)-amine] | 6.26 | 
CC(=O)N1CCN(Cc2cccc(-c3cc4cc(Cl)cc(NC5CCOCC5)c4[nH]3)c2)CC1 [Example 150, 1-{4-[3-(5-Chloro-7-tetrahydropyran-4-ylamino-1H-indol-2-yl)-benzyl]-piperazin-1-yl}-ethanone] | 6.80 | 
O=C1CN(CCc2cccc(-c3cc4cc(Cl)cc(NC5CCOCC5)c4[nH]3)c2)CCN1 [Example 151, {5-Chloro-2-[3-(2-oxo-piperazin-4-yl)ethylphenyl]-1H-indol-7-yl}-(tetrahydropyran-4-yl)-amine] | < 5.70 | 
O=S1(=O)CCN(CCc2cccc(-c3cc4cc(Cl)cc(NC5CCOCC5)c4[nH]3)c2)CC1 [Example 152, {5-Chloro-2-[3-(1,1-dioxo-thiomorpholin-4-yl)ethylphenyl]-1H-indol-7-yl}-(tetrahydropyran-4-yl)-amine] | 6.62 | 
c1cc(NC2CCCC2)c2[nH]ncc2c1 [Example 153, Cyclopentyl-(1H-indazol-7-yl)-amine] | 5.68 | 
c1cc(NC2CCOCC2)c2[nH]ncc2c1 [Example 154, (Tetrahydropyran-4-yl)-(1H-indazol-7-yl)-amine] | 5.38 | 
Cc1cc(NC2CCCC2)c2[nH]ncc2c1 [Example 155, Cyclopentyl-(5-methyl-1H-indazol-7-yl)-amine] | 5.89 | 
Cc1cc(NC2CCOCC2)c2[nH]ncc2c1 [Example 156, (5-Methyl-1H-indazol-7-yl)-(tetrahydropyran-4-yl)-amine] | < 5.00 | 
COc1ccc(-c2n[nH]c3c(NC4CCCC4)cccc23)cc1 [Example 157, Cyclopentyl-[3-(4-methoxyphenyl)-1H-indazol-7-yl)-amine] | 6.05 | 
COc1ccc(-c2n[nH]c3c(NC4CCOCC4)cccc23)cc1 [Example 158] |  | 5.56
COc1ccc(-c2n[nH]c3c(NCC4CCOCC4)cccc23)cc1 [Example 159, [3-(4-Methoxyphenyl)-1H-indazol-7-yl)-(tetrahydropyran-4-ylmethyl)-amine] | 6.96 | 
O=S1(=O)CCN(Cc2cc(NC3CCOCC3)c3[nH]cc(-c4ccccc4)c3c2)CC1 [Example 161, (Tetrahydropyran-4-yl)-[5-(1,1-dioxo-thiomorpholin-4-yl)methyl-3-phenyl-1H-indol-7-yl)-amine] | 6.44 | 
Brc1c(-c2ccccc2)[nH]c2c(NC3CCOCC3)cc(CN3CCOCC3)cc12 [Example 162, (Tetrahydropyran-4-yl)-[3-bromo-5-(morpholin-4-yl)methyl-2-phenyl-1H-indol-7-yl]-amine] | 6.15 | 
